Ends that are not written are not given here.
Assays:
mast cell tryptase = test: Cell-based assay for screening tryptase inhibitors (MCP-1 degradation in medium of anti-IgE-stimulated mast cells); design: species or system human; details: for Inhibition of the degradation of MCP-1 in the reaction medium: 6-hour reaction medium of anti-IgE-stimulated mast cells incubated with inhibitor at 37° C. for 16 hours, FIG. 7
Method: Primary human mast cells with functional phenotype of connective tissue-type mast cells were derived from peripheral blood using the protocol described in Example 1. Cells were stimulated via the high-affinity IgE receptors (FcERI) using an anti-IgE antibody and kept under various conditions (see conditions A to G below) for 6 hours and 16 hours. The supernatants were then collected and the MCP-1 level in the supernatants was determined.

human mast cells [1] = test: Inhibition of IgE-dependent degranulation (histamine release in response to anti-IgE); format: cell-based; details: IgE-sensitized human mast cells challenged with anti-IgE; FIG. 5
Method: Cultured mast cells at week 6, week 9 and week 12 were harvested, counted and seeded into 24-well plates in complete IMDM with 100 ng/ml SCF and 50 ng/ml IL-6. • IgE-dependent activation: Human mast cells were first sensitized by 0.5 μg/ml human myeloma IgE (Merck) in culture medium overnight. Unbound IgE was then removed by washing once with PBS. The cells were then resuspended in full HEPES buffer (FHB: 137 mM NaCl, 5.56 mM glucose, 12 mM HEPES, 2.7 mM KCl, 0.4 mM NaH2PO4 and 1 mM CaCl2 at pH 7.4) supplemented with 0.03% human albumin (HA) (for release of histamine and PGD2) or in IMDM with 10% FBS (for release of IL-8). […] 3.b Histamine Release Histamine released into the reaction buffer and the remaining granular histamine in the pellets were collected and analyzed by using Bran+Luebbe Autoanalyzer (AAIII Autoanalyzer, Bran+Luebbe, Germany) which chemically extracted histamine from the samples as described by Siraganian (Siraganian, R. P. 1974, Analytical Biochemistry 57(2): 383-394). […] For all stimulation studies, histamine released into the supernatant was expressed as a percentage of total cellular histamine content and all histamine release values were corrected for the spontaneous histamine release in buffer alone.

human mast cells [2] = test: Mast cell activation: release of histamine, PGD2 and IL-8 in response to stimuli; format: cell-based; details: human mast cells generated in Example 1, cultured 6 weeks or more; FIGS. 1-4
Method: To validate that the human mast cell cultures are functionally responsive, the release of histamine, prostaglandin D2 (PGD2) and interleukin-8 (IL-8) in response to stimulations by anti-IgE, aggregated IgG1, Toll-like receptor ligands, Substance P, compound 48/80 and ionophores was measured.
Cultured mast cells at week 6, week 9 and week 12 were harvested, counted and seeded into 24-well plates in complete IMDM with 100 ng/ml SCF and 50 ng/ml IL-6. • IgE-dependent activation: Human mast cells were first sensitized by 0.5 μg/ml human myeloma IgE (Merck) in culture medium overnight. Unbound IgE was then removed by washing once with PBS. […]
Histamine released into the reaction buffer and the remaining granular histamine in the pellets were collected and analyzed by using Bran+Luebbe Autoanalyzer (AAIII Autoanalyzer, Bran+Luebbe, Germany) which chemically extracted histamine from the samples as described by Siraganian (Siraganian, R. P. 1974, Analytical Biochemistry 57(2): 383-394). […] For all stimulation studies, histamine released into the supernatant was expressed as a percentage of total cellular histamine content and all histamine release values were corrected for the spontaneous histamine release in buffer alone. […]

NC(=O)[C@@H]1CCCN1C(=O)[C@H](CCCN=C(N)N)NC(=O)c1ccc2ccccc2c1O [APC366]
MCP-1 level relative to condition A (peak MCP-1 level at the 6th hour after stimulation) (mast cell tryptase; inhibitor added at 6th hour, 16 hours at 37° C., FIG. 8): approximate the same

CC(C)(C)NCC(O)c1ccc(O)c(CO)c1 (centres unmarked) [Salbutamol]
Inhibition of IgE-dependent degranulation (histamine release) (human mast cells [1]): can be inhibited

CC(C)C[C@H](NC(=O)[C@@H](O)[C@H](N)Cc1ccccc1)C(=O)O [Bestatin]
Inhibition of the degradation of MCP-1 in the reaction medium (mast cell tryptase): not

CC(C)C[C@H](NC(=O)[C@@H](NC(=O)N[C@@H](Cc1ccccc1)C(=O)O)[C@@H]1CCN=C(N)N1)C(=O)N[C@H](C=O)Cc1ccccc1 [Chymostatin]
Inhibition of the degradation of MCP-1 in the reaction medium (mast cell tryptase): not

Substance P (RPKPQQFFGLM; ends and bridges not checked; UniProt P20366 58-68, looked up)
Release of histamine, PGD2 and IL-8 in response to stimulation (human mast cells [2]): Release of histamine, PGD2 and IL-8 was observed

— patent US9394519B2, “Methods to produce mast cell culture” (Apollonian Biosystems Limited, priority 2011, dated 2016)
